The target of test [1] is skeletal muscle myosin-supported prothrombin activation by factors Xa and Va (Homo sapiens, UniProt P00742). Nature of the test: Assay 1A: prothrombin activation by factor Xa/factor Va/myosin in purified system. It is filed as biochemical, human factors Xa and Va; rabbit skeletal muscle myosin. The note with it: purified system; skeletal muscle myosin, factor Va 5 nM, factor Xa 0.2 nM, prothrombin 0.75 μM, 10 min; read-out: 1A (+myosin).

For test [2], the system named is thrombin generation in human platelet poor plasma with skeletal muscle myosin. Nature of the test: Assay 2A: thrombin generation, recalcification of human platelet poor plasma + myosin. The note with it: human platelet poor plasma 30%, myosin 50 nM, CaCl2 10 mmol/L; read-out: 2A (recalcification +myosin). Format: biochemical. The procedure: Activities of the various peptides and derivative compounds were also examined via assays using recalcification of human plasma. [One of] these assay format (2A) involves monitoring thrombin generation in platelet poor plasma (PPP). Specifically, pooled normal human platelet poor plasma (PPP) (obtained from George King Bio Medical Inc., Overland Park, Kans.) (30%) was incubated with skeletal muscle myosin at 50 nM in the presence of peptide in DMSO or DMSO alone for 5 min at 37° C. Then, fluorogenic thrombin substrate solution (Z-Gly-Gly-Arg-AMC) (I-1140) with CaCl2 (10 mmol/L final) alone was added to the reaction mixture (total 110 μl) to initiate coagulation. Thrombin generation was followed continuously for 25 min using SPECTRAmax GEMINI XS fluorometer (Molecular Devices, Sunnyvale, Calif.) with excitation and emission wavelengths set at 360 and 460 nm, respectively. The first derivative of fluorescence versus time was used to produce thrombin generation curves with the correction for substrate consumption and inner filter effect. For this assay 96 well plate (total 110 μL) or 384 well plates (total 30 μL) were used.
Activities obtained from Assay 2A (recalcification of human plasma in the presence of myosin) were used to rank the various peptides listed in Table 3. As noted above, this assay monitors recalcification of plasma to stimulate thrombin generation. In this assay, potency of the compounds was determined as the peptide concentration for 50% inhibition of thrombin generation, defined as “IC50”.

Test [3] deals with skeletal muscle myosin-supported prothrombin activation by factors Xa and Va. Nature of the test: Assay 1A: prothrombin activation by factor Xa/factor Va/myosin in purified system. Format: biochemical, human factors Xa and Va; rabbit skeletal muscle myosin.
The target in test [4] is phospholipid-supported prothrombin activation by factors Xa and Va (Homo sapiens, UniProt P00742). Nature of the test: Assay 1C: phospholipid vesicle (PC/PS 80%/20%)-supported prothrombin activation. It is filed as biochemical. The following applies: compared with effects on myosin-supported prothrombin activation.
Chain of phospholipid-supported prothrombin activation by factors Xa and Va (P00742 41-179 limits assumed): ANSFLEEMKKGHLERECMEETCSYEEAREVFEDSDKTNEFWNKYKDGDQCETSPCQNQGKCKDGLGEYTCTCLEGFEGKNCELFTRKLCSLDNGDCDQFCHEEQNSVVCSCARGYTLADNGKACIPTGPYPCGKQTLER
Chain of phospholipid-supported prothrombin activation by factors Xa and Va (P00742 235-488 limits assumed): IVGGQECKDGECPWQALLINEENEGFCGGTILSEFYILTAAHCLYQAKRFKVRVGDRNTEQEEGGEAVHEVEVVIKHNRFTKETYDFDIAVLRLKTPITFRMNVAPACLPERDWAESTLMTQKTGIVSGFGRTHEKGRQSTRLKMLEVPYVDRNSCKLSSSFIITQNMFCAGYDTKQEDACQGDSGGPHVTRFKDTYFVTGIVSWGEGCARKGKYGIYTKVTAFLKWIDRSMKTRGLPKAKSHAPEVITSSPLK

Starred links: 1 amine or outer side, 2 acyl side, 3 side chain; linkers in the order of their positions; H or OH if unused. Positions of bridges follow the written chain, without caps; N, C: chain ends. Non-standard residues stand in square brackets, D forms with d. Residues, ends and D or L forms follow the SMILES beside them. NMeF = CN[C@@H](Cc1ccccc1)C(=O)O; 3Pal = N[C@@H](Cc1cccnc1)C(=O)O; NMeN = CN[C@@H](CC(N)=O)C(=O)O; Suc = O=C(CCC(=O)[*:2])[*:1]; NMeS = CN[C@@H](CO)C(=O)O; Nle = CCCC[C@H](N)C(=O)O

Chain of skeletal muscle myosin-supported prothrombin activation by factors Xa and Va (Homo sapiens, UniProt P00742) (P00742 41-179): as the sequence (P00742 41-179 limits assumed) above
Chain of skeletal muscle myosin-supported prothrombin activation by factors Xa and Va (Homo sapiens, UniProt P00742) (P00742 235-488): as the sequence (P00742 235-488 limits assumed) above
Chain of skeletal muscle myosin-supported prothrombin activation by factors Xa and Va (Homo sapiens, UniProt P00742) (P12259 29-737 partner): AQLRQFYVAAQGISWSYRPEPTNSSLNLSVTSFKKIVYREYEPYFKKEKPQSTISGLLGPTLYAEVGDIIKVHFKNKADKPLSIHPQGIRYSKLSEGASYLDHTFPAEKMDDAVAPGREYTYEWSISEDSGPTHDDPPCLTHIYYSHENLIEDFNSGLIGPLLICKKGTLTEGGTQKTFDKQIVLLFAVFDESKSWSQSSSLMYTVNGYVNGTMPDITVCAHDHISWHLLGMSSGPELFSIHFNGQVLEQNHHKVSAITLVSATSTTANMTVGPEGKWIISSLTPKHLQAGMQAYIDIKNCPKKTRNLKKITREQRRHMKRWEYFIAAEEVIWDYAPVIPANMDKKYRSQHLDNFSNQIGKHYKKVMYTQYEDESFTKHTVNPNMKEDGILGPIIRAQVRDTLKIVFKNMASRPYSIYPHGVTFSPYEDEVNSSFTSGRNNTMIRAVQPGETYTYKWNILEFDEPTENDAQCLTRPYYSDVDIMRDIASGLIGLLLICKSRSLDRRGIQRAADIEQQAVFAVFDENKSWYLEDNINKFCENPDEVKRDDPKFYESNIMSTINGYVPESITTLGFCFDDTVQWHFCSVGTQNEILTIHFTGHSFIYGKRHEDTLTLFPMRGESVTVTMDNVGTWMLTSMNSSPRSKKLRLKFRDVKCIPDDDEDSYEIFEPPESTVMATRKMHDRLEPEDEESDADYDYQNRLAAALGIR
Chain of skeletal muscle myosin-supported prothrombin activation by factors Xa and Va (Homo sapiens, UniProt P00742) (P12259 1574-2224 partner): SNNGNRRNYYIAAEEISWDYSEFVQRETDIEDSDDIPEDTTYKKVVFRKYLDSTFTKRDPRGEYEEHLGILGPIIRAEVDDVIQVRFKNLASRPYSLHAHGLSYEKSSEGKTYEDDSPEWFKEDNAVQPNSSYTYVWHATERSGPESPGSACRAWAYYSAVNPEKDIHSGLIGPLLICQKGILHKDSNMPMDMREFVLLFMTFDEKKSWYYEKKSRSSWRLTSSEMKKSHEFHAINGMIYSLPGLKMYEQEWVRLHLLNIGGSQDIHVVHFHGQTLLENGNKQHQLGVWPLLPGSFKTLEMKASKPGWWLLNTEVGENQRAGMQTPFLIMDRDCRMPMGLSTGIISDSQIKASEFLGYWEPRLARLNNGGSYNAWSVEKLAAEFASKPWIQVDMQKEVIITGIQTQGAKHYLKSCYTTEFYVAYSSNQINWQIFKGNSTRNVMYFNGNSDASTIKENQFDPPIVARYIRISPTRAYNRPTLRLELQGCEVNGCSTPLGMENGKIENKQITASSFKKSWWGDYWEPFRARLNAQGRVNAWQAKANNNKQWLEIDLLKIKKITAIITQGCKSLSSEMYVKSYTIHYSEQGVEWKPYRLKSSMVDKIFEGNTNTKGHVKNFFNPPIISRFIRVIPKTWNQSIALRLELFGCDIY

`CCCC[C@H](NC(=O)[C@H](Cc1c[nH]c2ccccc12)NC(=O)[C@@H]1CCCN1C(=O)[C@H](Cc1c[nH]c2ccccc12)NC(=O)[C@H](Cc1c[nH]cn1)NC(=O)[C@H](CCCCN)NC(=O)[C@@H](NC(=O)[C@H](CC(N)=O)NC(=O)[C@H](CCCC)NC(=O)[C@H](Cc1ccccc1)N(C)C(=O)[C@H](CO)NC(=O)[C@H](CCCNC(=N)N)NC(=O)[C@@H](NC(=O)[C@H](CC(N)=O)NC(=O)[C@H](Cc1ccc(O)cc1)NC(=O)[C@H](CCC(N)=O)NC(=O)[C@@H](NC(=O)[C@H](CS)NC(=O)[C@H](Cc1ccccc1)NC(=O)[C@@H](NC(=O)[C@H](C)N)[C@@H](C)CC)[C@@H](C)CC)[C@@H](C)CC)C(C)C)C(=O)N[C@@H](CCCCN)C(N)=O` [HC198] (H-AIFCIQYNIRS[NMeF][Nle]NVKHWPW[Nle]K-NH2; N-terminus assumed): the IC50 is 0.87 µM in test [1] and 16 µM in test [2].
As for “QEEIKNMWAAFPPDVGGNVDYKNICYVITH [RLC133-162]”, the IC50 in test [3] (dose-dependency assays, FIG. 2A, myosin 2 nM, read-out: IC50, inhibition of myosin-supported prothrombin activation) was 26 µM. In addition, in test [3] (peptide 5 μM, FIG. 1A), the “inhibition of myosin-supported prothrombin activation at 5 μM” value is given as “inhibitory, to varying degrees”. For the same molecule, the “inhibition of myosin-supported prothrombin activation at 100 μM” value in test [3] (peptide 100 μM, FIG. 1A) is “inhibited”. For the same molecule, in test [4], the “inhibitory effects on phospholipid-supported prothrombin activation” value was “not apparent”.
For the molecule `CCCC[C@H](NC(=O)[C@H](Cc1c[nH]c2ccccc12)NC(=O)[C@@H]1CCCN1C(=O)[C@H](Cc1c[nH]c2ccccc12)NC(=O)[C@H](Cc1c[nH]cn1)NC(=O)[C@H](CCCCN)NC(=O)[C@@H](NC(=O)[C@H](CC(N)=O)NC(=O)[C@H](CCCC)NC(=O)[C@H](Cc1ccccc1)NC(=O)[C@H](CO)NC(=O)[C@H](CCCNC(=N)N)NC(=O)[C@@H](NC(=O)[C@H](CC(N)=O)NC(=O)[C@H](Cc1ccc(O)cc1)NC(=O)[C@H](CCC(N)=O)NC(=O)[C@@H](NC(=O)[C@H](CS)NC(=O)[C@H](Cc1cccnc1)NC(=O)[C@@H](NC(=O)[C@H](C)N)[C@@H](C)CC)[C@@H](C)CC)[C@@H](C)CC)C(C)C)C(=O)N[C@@H](CCCCN)C(N)=O` [HC178] (H-AI[3Pal]CIQYNIRSF[Nle]NVKHWPW[Nle]K-NH2; N-terminus assumed), the IC50 in test [1] was 1.7 µM; in test [2], 13 µM.
As for `CCCC[C@H](NC(=O)[C@H](Cc1c[nH]c2ccccc12)NC(=O)[C@@H]1CCCN1C(=O)[C@H](Cc1c[nH]c2ccccc12)NC(=O)[C@H](Cc1c[nH]cn1)NC(=O)[C@H](CCCCN)NC(=O)[C@@H](NC(=O)[C@H](CC(N)=O)NC(=O)[C@H](CCCC)NC(=O)[C@H](Cc1ccccc1)NC(=O)[C@H](CO)NC(=O)[C@H](CCCNC(=N)N)NC(=O)[C@@H](NC(=O)[C@H](CC(N)=O)NC(=O)[C@H](Cc1ccc(O)cc1)NC(=O)[C@H](CCC(N)=O)NC(=O)[C@@H](NC(=O)[C@H](CO)N(C)C(=O)[C@H](Cc1ccccc1)NC(=O)[C@@H](NC(=O)[C@H](C)N)[C@@H](C)CC)[C@@H](C)CC)[C@@H](C)CC)C(C)C)C(=O)N[C@@H](CCCCN)C(N)=O` [HC189] (H-AIF[NMeS]IQYNIRSF[Nle]NVKHWPW[Nle]K-NH2; N-terminus assumed), the IC50 in test [1] is 1.5 µM; in test [2] it was 17 µM.
Take `CCCC[C@H](NC(=O)[C@H](Cc1c[nH]c2ccccc12)NC(=O)[C@@H]1CCCN1C(=O)[C@H](Cc1c[nH]c2ccccc12)NC(=O)[C@H](Cc1c[nH]cn1)NC(=O)[C@H](CCCCN)NC(=O)[C@@H](NC(=O)[C@H](CC(N)=O)N(C)C(=O)[C@H](CCCC)NC(=O)[C@H](Cc1ccccc1)NC(=O)[C@H](CO)NC(=O)[C@H](CCCNC(=N)N)NC(=O)[C@@H](NC(=O)[C@H](CC(N)=O)NC(=O)[C@H](Cc1ccc(O)cc1)NC(=O)[C@H](CCC(N)=O)NC(=O)[C@@H](NC(=O)[C@H](CS)NC(=O)[C@H](Cc1ccccc1)NC(=O)[C@@H](NC(=O)[C@H](C)N)[C@@H](C)CC)[C@@H](C)CC)[C@@H](C)CC)C(C)C)C(=O)N[C@@H](CCCCN)C(N)=O` [HC199] (H-AIFCIQYNIRSF[Nle][NMeN]VKHWPW[Nle]K-NH2): the IC50 in test [1] was 0.46 µM; in test [2], 5.8 to 10.2 µM.
As for `CC[C@H](C)[C@H](NC(=O)[C@H](C)NC(=O)[C@H](CCC(=O)O)NC(=O)[C@H](CCCNC(=N)N)NC(=O)[C@H](CCCNC(=N)N)NC(=O)[C@H](CCC(=O)O)NC(=O)[C@@H]1CCCCNC(=O)CCC(=O)NCCCC[C@@H]2NC(=O)[C@H](C)NC(=O)[C@H](CC(C)C)NC(=O)[C@H](Cc3ccccc3)NC(=O)CNC(=O)[C@H](CCCNC(=N)N)NC(=O)[C@@H](NC(=O)[C@H](CCCNC(=N)N)NC(=O)[C@H](C)N)CCCCNC(=O)CCC(=O)NCCCC[C@H](NC2=O)C(=O)N[C@@H](CCC(=O)O)C(=O)N[C@@H](Cc2ccc(O)cc2)C(=O)N[C@@H](CCC(N)=O)C(=O)N[C@@H](CCCNC(=N)N)C(=O)N[C@@H](CCSC)C(=O)N1)C(=O)N[C@@H](Cc1ccccc1)C(=O)N[C@@H](CS)C(=O)N[C@H](C(=O)N[C@@H](CCC(N)=O)C(=O)N[C@@H](Cc1ccc(O)cc1)C(=O)N[C@@H](CC(N)=O)C(=O)N[C@H](C(=O)N[C@@H](CCCNC(=N)N)C(=O)N[C@@H](CO)C(=O)N[C@@H](Cc1ccccc1)C(=O)N[C@@H](CCSC)C(=O)N[C@@H](CC(N)=O)C(=O)N[C@H](C(=O)N[C@@H](CCCCN)C(=O)N[C@@H](Cc1c[nH]cn1)C(=O)N[C@@H](Cc1c[nH]c2ccccc12)C(=O)N1CCC[C@H]1C(=O)N[C@@H](Cc1c[nH]c2ccccc12)C(N)=O)C(C)C)[C@@H](C)CC)[C@@H](C)CC` [HC153] (H-ARKRGFLAKKEYQRMKERREAIFCIQYNIRSFMNVKHWPW-NH2; linker 3-10, 9-16 via Suc (inferred); N-terminus and C-terminus assumed), in test [2], the IC50 was found to be 11 µM.
Take `CC[C@H](C)[C@H](NC(=O)[C@H](C)NC(=O)[C@H](CCC(=O)O)NC(=O)[C@H](CCCNC(=N)N)NC(=O)[C@H](CCCNC(=N)N)NC(=O)[C@H](CCC(=O)O)NC(=O)[C@@H](NC(=O)[C@H](CCSC)NC(=O)[C@H](CCCNC(=N)N)NC(=O)[C@H](CCC(N)=O)NC(=O)[C@H](Cc1ccc(O)cc1)NC(=O)[C@H](CCC(=O)O)NC(=O)[C@@H](NC(=O)[C@H](CCCNC(=N)N)NC(=O)[C@H](C)NC(=O)[C@H](CC(C)C)NC(=O)[C@H](Cc1ccccc1)NC(=O)CNC(=O)[C@H](CCCNC(=N)N)NC(=O)[C@H](CS)NC(=O)[C@H](CCCNC(=N)N)NC(=O)[C@H](C)N)C(C)C)C(C)C)C(=O)N[C@@H](Cc1ccccc1)C(=O)N[C@@H](CS)C(=O)N[C@H](C(=O)N[C@@H](CCC(N)=O)C(=O)N[C@H]1CCCCNC(=O)CCC(=O)NCCCC[C@@H](C(=O)N[C@H](C(=O)N[C@@H](CCCCN)C(=O)N[C@@H](Cc2c[nH]cn2)C(=O)N[C@@H](Cc2c[nH]c3ccccc23)C(=O)N2CCC[C@H]2C(=O)N[C@@H](Cc2c[nH]c3ccccc23)C(N)=O)C(C)C)NC(=O)[C@H](CCSC)NC(=O)[C@H](Cc2ccccc2)NC(=O)[C@H](CO)NC(=O)[C@H](CCCNC(=N)N)NC(=O)[C@H]([C@@H](C)CC)NC(=O)[C@H](CC(N)=O)NC1=O)[C@@H](C)CC` [HC077] (H-ARCRGFLARVEYQRMVERREAIFCIQKNIRSFMKVKHWPW-NH2; linker 27-34 via Suc; N-terminus and C-terminus assumed): the IC50 in test [2] is 15 µM.
Turning to `CCCC[C@H](NC(=O)[C@H](Cc1c[nH]c2ccccc12)NC(=O)[C@@H]1CCCN1C(=O)[C@H](Cc1c[nH]c2ccccc12)NC(=O)[C@H](Cc1c[nH]cn1)NC(=O)[C@H](CCCCN)NC(=O)[C@@H](NC(=O)[C@H](CC(N)=O)NC(=O)[C@H](CCCC)NC(=O)[C@H](Cc1ccccc1)NC(=O)[C@H](CO)NC(=O)[C@H](CCCNC(=N)N)NC(=O)[C@@H](NC(=O)[C@H](CC(N)=O)NC(=O)[C@H](Cc1ccc(O)cc1)NC(=O)[C@H](CCC(N)=O)NC(=O)[C@@H](NC(=O)[C@H](CO)NC(=O)[C@H](Cc1ccccc1)NC(=O)[C@@H](NC(=O)[C@H](C)N)[C@@H](C)CC)[C@@H](C)CC)[C@@H](C)CC)C(C)C)C(=O)N[C@@H](CCCCN)C(N)=O` [HC188] (H-AIFSIQYNIRSF[Nle]NVKHWPW[Nle]K-NH2; N-terminus assumed), the values for the IC50 in test [1] and in test [2] were 0.59 µM and 10 µM, respectively.

The values above are taken from patent US20220340629A1, “Myosin Derived Peptides and Related Compounds with Anticoagulant Activities” (THE SCRIPPS RESEARCH INSTITUTE, priority 0001, published 2022).
